{"source": "patent US20260285850A1", "about": "“SUBSTITUTED OXAZOLIDINONES AND IMIDAZOLINONES AS HERBICIDES” (FMC CORPORATION, priority 2023, published 2026)", "type_in_all_cases": "in vivo", "key": {"[1]": {"test_system": "ducksalad (Heteranthera limosa)", "assay": "Test B flooded paddy test, visual plant response rating 0-100", "settings": "250 g ai/ha, Flood, applied to paddy water, evaluated after 13 days", "in_short": "(§1)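 Plants were grown to the 2-leaf stage, then pots were flooded to 3 cm above the soil and compound was applied directly to the paddy water, with that depth kept throughout.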"}, "[2]": {"test_system": "barnyardgrass (Echinochloa crusgalli)", "assay": "Test B flooded paddy test, visual plant response rating 0-100", "settings": "250 g ai/ha, Flood, applied to paddy water, evaluated after 13 days", "in_short": "as §1"}, "rice (Oryza sativa)": {"test_system": "rice (Oryza sativa)", "assay": "Test B flooded paddy test, visual plant response rating 0-100", "settings": "250 g ai/ha, Flood, applied to paddy water, evaluated after 13 days", "in_short": "as §1"}, "[3]": {"test_system": "sedge, umbrella (small-flower umbrella sedge, Cyperus difformis)", "assay": "Test B flooded paddy test, visual plant response rating 0-100", "settings": "250 g ai/ha, Flood, applied to paddy water, evaluated after 13 days", "in_short": "as §1"}, "[4]": {"test_system": "wheat (Triticum aestivum)", "assay": "Test A postemergence application, visual injury rating 0-100", "settings": "10 days", "in_short": "(§2)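 Plants in a loam and sand soil blend were treated with each test chemical, in a non-phytotoxic solvent system including surfactant, either sprayed on seeded soil before emergence or applied after emergence at the one- to two-leaf stage. Ten days later in the greenhouse, plants were compared with untreated controls and visually rated from 0 (no effect) to 100 (complete control).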"}, "soybean (Glycine max) [5]": {"test_system": "soybean (Glycine max)", "assay": "Test A postemergence application, visual injury rating 0-100", "settings": "10 days", "in_short": "as §2"}, "[6]": {"test_system": "green foxtail (Setaria viridis)", "assay": "Test A postemergence application, visual injury rating 0-100", "settings": "10 days", "in_short": "as §2"}, "[7]": {"test_system": "ragweed (common ragweed, Ambrosia artemisiifolia)", "assay": "Test A postemergence application, visual injury rating 0-100", "settings": "10 days", "in_short": "as §2"}, "corn (Zea mays) [8]": {"test_system": "corn (Zea mays)", "assay": "Test A postemergence application, visual injury rating 0-100", "settings": "10 days", "in_short": "as §2"}, "[9]": {"test_system": "barnyardgrass (Echinochloa crus-galli)", "assay": "Test A postemergence application, visual injury rating 0-100", "settings": "10 days", "in_short": "as §2"}, "[10]": {"test_system": "galium (catchweed bedstraw, Galium aparine)", "assay": "Test A postemergence application, visual injury rating 0-100", "settings": "10 days", "in_short": "as §2"}, "[11]": {"test_system": "horseweed (Erigeron canadensis)", "assay": "Test A postemergence application, visual injury rating 0-100", "settings": "10 days", "in_short": "as §2"}, "[12]": {"test_system": "blackgrass (Alopecurus myosuroides)", "assay": "Test A postemergence application, visual injury rating 0-100", "settings": "10 days", "in_short": "as §2"}, "[13]": {"test_system": "palmer (palmer amaranth, palmer pigweed, Amaranthus palmeri)", "assay": "Test A postemergence application, visual injury rating 0-100", "settings": "10 days", "in_short": "as §2"}, "[14]": {"test_system": "oat, wild (wild oat, Avena fatua)", "assay": "Test A postemergence application, visual injury rating 0-100", "settings": "10 days", "in_short": "as §2"}, "kochia (Bassia scoparia) [15]": {"test_system": "kochia (Bassia scoparia)", "assay": "Test A postemergence application, visual injury rating 0-100", "settings": "10 days", "in_short": "as §2"}, "[16]": {"test_system": "ryegrass, Italian (italian ryegrass, Lolium multiflorum)", "assay": "Test A postemergence application, visual injury rating 0-100", "settings": "10 days", "in_short": "as §2"}, "[17]": {"test_system": "wheat (Triticum aestivum)", "assay": "Test A preemergence soil spray, visual injury rating 0-100", "settings": "10 days, 0 = no effect, 100 = complete control", "in_short": "as §2"}, "soybean (Glycine max) [18]": {"test_system": "soybean (Glycine max)", "assay": "Test A preemergence soil spray, visual injury rating 0-100", "settings": "10 days, 0 = no effect, 100 = complete control", "in_short": "as §2"}, "[19]": {"test_system": "green foxtail (Setaria viridis)", "assay": "Test A preemergence soil spray, visual injury rating 0-100", "settings": "10 days, 0 = no effect, 100 = complete control", "in_short": "as §2"}, "[20]": {"test_system": "ragweed (common ragweed, Ambrosia artemisiifolia)", "assay": "Test A preemergence soil spray, visual injury rating 0-100", "settings": "10 days, 0 = no effect, 100 = complete control", "in_short": "as §2"}, "corn (Zea mays) [21]": {"test_system": "corn (Zea mays)", "assay": "Test A preemergence soil spray, visual injury rating 0-100", "settings": "10 days, 0 = no effect, 100 = complete control", "in_short": "as §2"}, "[22]": {"test_system": "barnyardgrass (Echinochloa crus-galli)", "assay": "Test A preemergence soil spray, visual injury rating 0-100", "settings": "10 days, 0 = no effect, 100 = complete control", "in_short": "as §2"}, "[23]": {"test_system": "blackgrass (Alopecurus myosuroides)", "assay": "Test A preemergence soil spray, visual injury rating 0-100", "settings": "10 days, 0 = no effect, 100 = complete control", "in_short": "as §2"}, "[24]": {"test_system": "palmer (palmer amaranth, palmer pigweed, Amaranthus palmeri)", "assay": "Test A preemergence soil spray, visual injury rating 0-100", "settings": "10 days, 0 = no effect, 100 = complete control", "in_short": "as §2"}, "[25]": {"test_system": "oat, wild (wild oat, Avena fatua)", "assay": "Test A preemergence soil spray, visual injury rating 0-100", "settings": "10 days, 0 = no effect, 100 = complete control", "in_short": "as §2"}, "kochia (Bassia scoparia) [26]": {"test_system": "kochia (Bassia scoparia)", "assay": "Test A preemergence soil spray, visual injury rating 0-100", "settings": "10 days, 0 = no effect, 100 = complete control", "in_short": "as §2"}, "[27]": {"test_system": "ryegrass, Italian (italian ryegrass, Lolium multiflorum)", "assay": "Test A preemergence soil spray, visual injury rating 0-100", "settings": "10 days, 0 = no effect, 100 = complete control", "in_short": "as §2"}, "[28]": {"settings": "31 g ai/ha, postemergence, 0 = no effect, 100 = complete control"}, "[29]": {"settings": "Postemergence, 125 g ai/ha, 0 is no effect, 100 is complete control"}}, "data": [{"smiles": "CCOC(=O)C1CCC(NC(=O)C2(C)CN(c3cc(F)cc(Cl)c3)C(=O)O2)C1", "note": "(stereo not shown) [Compound 19]", "values": [{"measurement": "Plant response rating, Ducksalad (0 to 100 scale, 0 is no effect and 100 is complete control)", "setting": "[1]", "result": 70}, {"measurement": "Plant response rating, Barnyardgrass (0 to 100 scale, 0 is no effect and 100 is complete control)", "setting": "[2]", "result": 65}, {"measurement": "Plant response rating, Rice (0 to 100 scale, 0 is no effect and 100 is complete control)", "setting": "rice (Oryza sativa)", "result": 0}, {"measurement": "Plant response rating, Sedge, Umbrella (0 to 100 scale, 0 is no effect and 100 is complete control)", "setting": "[3]", "result": 60}, {"measurement": "Wheat plant response rating (0-100)", "setting": "[4]; [28]", "result": 80}, {"measurement": "Wheat plant response rating (0 to 100 scale)", "setting": "[4]; [29]", "result": 90}, {"measurement": "Soybean plant response rating (0-100)", "setting": "soybean (Glycine max) [5]; [28]", "result": 50}, {"measurement": "Soybean plant response rating (0 to 100 scale)", "setting": "soybean (Glycine max) [5]; [29]", "result": 60}, {"measurement": "Foxtail, Green plant response rating (0-100)", "setting": "[6]; [28]", "result": 40}, {"measurement": "Foxtail, Green plant response rating (0 to 100 scale)", "setting": "[6]; [29]", "result": 90}, {"measurement": "Ragweed plant response rating (0-100)", "setting": "[7]; [28]", "result": 0}, {"measurement": "Ragweed plant response rating (0 to 100 scale)", "setting": "[7]; [29]", "result": 40}, {"measurement": "Corn plant response rating (0-100)", "setting": "corn (Zea mays) [8]; [28]", "result": 50}, {"measurement": "Corn plant response rating (0 to 100 scale)", "setting": "corn (Zea mays) [8]; [29]", "result": 100}, {"measurement": "Barnyardgrass plant response rating (0-100)", "setting": "[9]; [28]", "result": 60}, {"measurement": "Barnyardgrass plant response rating (0 to 100 scale)", "setting": "[9]; [29]", "result": 100}, {"measurement": "Galium plant response rating (0-100)", "setting": "[10]; [28]", "result": 80}, {"measurement": "Galium plant response rating (0 to 100 scale)", "setting": "[10]; [29]", "result": 80}, {"measurement": "Horseweed plant response rating (0-100)", "setting": "[11]; [28]", "result": 0}, {"measurement": "Horseweed plant response rating (0 to 100 scale)", "setting": "[11]; [29]", "result": 0}, {"measurement": "Blackgrass plant response rating (0-100)", "setting": "[12]; [28]", "result": 70}, {"measurement": "Blackgrass plant response rating (0 to 100 scale)", "setting": "[12]; [29]", "result": 90}, {"measurement": "Amaranth, Palmer plant response rating (0-100)", "setting": "[13]; [28]", "result": 30}, {"measurement": "Amaranth, Palmer / Pigweed, Palmer plant response rating (0 to 100 scale)", "setting": "[13]; [29]", "result": 90}, {"measurement": "Oat, Wild plant response rating (0-100)", "setting": "[14]; [28]", "result": 90}, {"measurement": "Oat, Wild plant response rating (0 to 100 scale)", "setting": "[14]; [29]", "result": 90}, {"measurement": "Kochia plant response rating (0-100)", "setting": "kochia (Bassia scoparia) [15]; [28]", "result": 10}, {"measurement": "Kochia plant response rating (0 to 100 scale)", "setting": "kochia (Bassia scoparia) [15]; [29]", "result": 70}, {"measurement": "Ryegrass, Italian plant response rating (0-100)", "setting": "[16]; [28]", "result": 90}, {"measurement": "Ryegrass, Italian plant response rating (0 to 100 scale)", "setting": "[16]; [29]", "result": 90}, {"measurement": "Wheat plant response rating (0-100)", "setting": "[17]; 31 g ai/ha", "result": 70}, {"measurement": "Wheat plant response rating (0 to 100 scale)", "setting": "[17]; 125 g ai/ha", "result": 90}, {"measurement": "Soybean plant response rating (0-100)", "setting": "soybean (Glycine max) [18]; 31 g ai/ha", "result": 0}, {"measurement": "Soybean plant response rating (0 to 100 scale)", "setting": "soybean (Glycine max) [18]; 125 g ai/ha", "result": 20}, {"measurement": "Foxtail, Green plant response rating (0-100)", "setting": "[19]; 31 g ai/ha", "result": 50}, {"measurement": "Foxtail, Green plant response rating (0 to 100 scale)", "setting": "[19]; 125 g ai/ha", "result": 90}, {"measurement": "Ragweed plant response rating (0-100)", "setting": "[20]; 31 g ai/ha", "result": 0}, {"measurement": "Ragweed plant response rating (0 to 100 scale)", "setting": "[20]; 125 g ai/ha", "result": 0}, {"measurement": "Corn plant response rating (0-100)", "setting": "corn (Zea mays) [21]; 31 g ai/ha", "result": 10}, {"measurement": "Corn plant response rating (0 to 100 scale)", "setting": "corn (Zea mays) [21]; 125 g ai/ha", "result": 50}, {"measurement": "Barnyardgrass plant response rating (0-100)", "setting": "[22]; 31 g ai/ha", "result": 30}, {"measurement": "Barnyardgrass plant response rating (0 to 100 scale)", "setting": "[22]; 125 g ai/ha", "result": 80}, {"measurement": "Blackgrass plant response rating (0-100)", "setting": "[23]; 31 g ai/ha", "result": 0}, {"measurement": "Blackgrass plant response rating (0 to 100 scale)", "setting": "[23]; 125 g ai/ha", "result": 50}, {"measurement": "Amaranth, Palmer plant response rating (0-100)", "setting": "[24]; 31 g ai/ha", "result": 30}, {"measurement": "Amaranth, Palmer plant response rating (0 to 100 scale)", "setting": "[24]; 125 g ai/ha", "result": 90}, {"measurement": "Oat, Wild plant response rating (0-100)", "setting": "[25]; 31 g ai/ha", "result": 0}, {"measurement": "Oat, Wild plant response rating (0 to 100 scale)", "setting": "[25]; 125 g ai/ha", "result": 60}, {"measurement": "Kochia plant response rating (0-100)", "setting": "kochia (Bassia scoparia) [26]; 31 g ai/ha", "result": 0}, {"measurement": "Kochia plant response rating (0 to 100 scale)", "setting": "kochia (Bassia scoparia) [26]; 125 g ai/ha", "result": 90}, {"measurement": "Ryegrass, Italian plant response rating (0-100)", "setting": "[27]; 31 g ai/ha", "result": 80}, {"measurement": "Ryegrass, Italian plant response rating (0 to 100 scale)", "setting": "[27]; 125 g ai/ha", "result": 80}]}]}
